From patent US10562910B2, “Nitrogen-containing tricyclic compounds and uses thereof in medicine” (SUNSHINE LAKE PHARMA CO., LTD., priority 2016, dated 2020)

Legend:
FXR-LBD = FXR-LBD (Homo sapiens (Human), UniProt Q96RI1); test: TR-FRET Farnesoid X Receptor Coactivator Assay; format: biochemical; conditions: TR-FRET farnesoid X receptor protein coactivator activity
Method: Purchasing invitrogen PV4833 kits. The procedure refers to LanthaScreen™ TR-FRET Farnesoid X Receptor Coactivator Assay
First, the required amount of the compound was weighed and dissolved in 100% DMSO at the maximum concentration of 3000 μM. The solution at the maximum concentration was diluted by 3-fold serial dilution in DMSO to get 10 concentrations;
Second, the above prepared solutions of different concentrations were diluted to 50-fold with a buffer supplied with the kit, to 2× compound solution, followed by mixing and then 10 μL of the diluted solution was added to a 384 well plate;
Third, FXR-LBD was diluted with a buffer to 4× solution, and 5 μL of the diluent was added to the 384 well plate of second step;
Fourth, Fluorescein-SRC2-2 and Tb anti-GST antibody were diluted to 4× Fluorescein-SRC2-2 and Tb anti-GST antibody solution. Then two reagents were mixed together, and 5 μL of the mixture was added to the 384 well plate of third step;
Finally, the solution of the 384 well above was mixed uniformly by centrifuging, and then incubated at room temperature for 1 h. Then the TR-FRET Endpoint method was used for measuring the solution at wavelengths of 520 nm, 495 nm and 337 nm.

[1] = target: FXR ligand binding domain (LBD) (Homo sapiens (Human), UniProt Q96RI1); test: Mammalian one hybrid (M1H) GAL4 reporter gene assay in HEK293 cells; format: cell-based; conditions: GAL4 reporter gene test
Chain of FXR ligand binding domain (LBD) (Q96RI1 261-481): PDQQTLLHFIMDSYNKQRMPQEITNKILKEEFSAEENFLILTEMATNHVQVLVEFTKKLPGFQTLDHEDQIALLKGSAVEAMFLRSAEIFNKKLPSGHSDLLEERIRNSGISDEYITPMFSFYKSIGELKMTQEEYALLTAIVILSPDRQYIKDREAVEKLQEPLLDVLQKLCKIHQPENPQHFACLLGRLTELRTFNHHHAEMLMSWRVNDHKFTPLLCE
Source text: Mammalian one hybrid technology is also called chimeric receptor gene assay. Based on the GAL4 chimera receptor assay, the activity of compounds which mediated activation of FXR was detected by dual luciferase reporter assay. The methods were as follows: cDNA encoding the FXR ligand binding domain (LBD), the yeast GAL4 DNA binding domain (DBD) and the Renilla luciferase DNA were fused to construct a chimera expression plasmid pBIND-FXR (Promega). […] The plasmid pG5Luc (Promega) was used as the reporter plasmid, containing the GAL4 upstream activation sequence (UAS) and the Firefly luciferase receptor gene. All GAL4 reporter gene assays were done in HEK293 cells. Cells were cultured at 37° C., 5% CO2 under humidified conditions. […] The contents were mixed completely and incubated the mixtures for 15 minutes at room temperature. The volume of the transfection mixture was 2.5 μl/well. Trypsinized and diluted the cell slurry at a density of […] (100 μl/well for 96-well plate). Then added required volume of transfection mixture prepared previously into the cell slurry, and dispensed 100 μl/well of the cell slurry into the 96-well plate and incubated the plate for 24 hours at 37° C., 5% CO2 under humidified conditions. Compounds prediluted in complete medium were added into each well and then incubated at 37° C., 5% CO2 under humidified conditions for 18 hours. The firefly and renilla luciferase signal was assayed by Promega's Dual Luciferase Reporter Assay System.
The % Activation value was calculated by the following equation: Activation %=[(X−Min)/(Max−Min)]×100%. “X” is the “F/R” value from compounds. “F/R” means “Firefly/Renilla”. “Min” is the mean “F/R” value from no compound control. “Max” is the mean “F/R” value from reference compound control. Finally, the EC50 value of each compounds were calculated by GraphPrism 5.0.

[2] = Pharmacokinetics test in SD rats; format: in vivo; conditions: rat, plasma, male SD rats; for Vd: read-out: Vss; for bioavailability: po 5 mg/kg vs iv 1 mg/kg
Method: Example 22 Pharmacokinetics Test
Experimental animals: six healthy adult male SD rats (purchased from Hunan SJA Laboratory Animal Co. Ltd.) were divided into two groups, three rats in each group, and the two groups were given intravenous injection and oral administration respectively.
Drug preparation: a quantity of a compound of the present invention was weighed, and 5% DMSO, 10% Kolliphor HS15 and 85% saline (0.9%) were added to give target concentrations of the compound solution.
Administration and sample collection: animals were fasted for 12 h before administration, and fed at the time point of 3 hours after the administration. SD rats of one group were given intravenous injection (IV, 1 mg/kg) via hind legs and SD rats of the other group were given oral administration (PO, 5 mg/kg) respectively. Then blood was collected in the rat tail vein at the time point of 0, 0.083, 0.25, 0.5, 1, 2, 4, 6, 8, 24 h respectively, and the blood volume was about 200-400 μL/time point. After the collection of whole blood at each time point, the collected blood was set in K2EDTA anticoagulant tube, and the tube was placed in the incubator with ice packs. All samples were centrifuged for 5 min at 4° C. at 4600 r/min within 15 min. Plasma was separated and collected. The concentrations of different compounds in the plasma of the rats after administration were measured using LC/MS/MS method, and the pharmacokinetic parameters were calculated according to the curve of the drug concentration-time.

Chain of FXR-LBD (Q96RI1 262-486): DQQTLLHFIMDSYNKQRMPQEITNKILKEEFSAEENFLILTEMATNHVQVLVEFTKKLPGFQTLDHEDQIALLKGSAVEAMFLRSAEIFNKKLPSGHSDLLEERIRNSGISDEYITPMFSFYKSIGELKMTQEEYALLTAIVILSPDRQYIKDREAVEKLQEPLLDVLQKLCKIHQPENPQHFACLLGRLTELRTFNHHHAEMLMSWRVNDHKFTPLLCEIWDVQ

| Structure (SMILES) | EC50 (FXR-LBD) [nM] | EC50 [1] [nM] | AUC(0-inf) ([2]; iv 1 mg/kg) [ng·h/mL] | AUC(0-t) ([2]; iv 1 mg/kg) [ng·h/mL] | Cmax ([2]; iv 1 mg/kg) [ng/mL] | MRT inf ([2]; iv 1 mg/kg) [min] | Tmax ([2]; iv 1 mg/kg) [min] | clearance ([2]; iv 1 mg/kg) [mL/min/kg] | half-life ([2]; iv 1 mg/kg) [min] | Vd ([2]; iv 1 mg/kg) [L/kg] | AUC(0-inf) ([2]; po 5 mg/kg) [ng·h/mL] | AUC(0-t) ([2]; po 5 mg/kg) [ng·h/mL] | Cmax ([2]; po 5 mg/kg) [ng/mL] | MRT inf ([2]; po 5 mg/kg) [min] | Tmax ([2]; po 5 mg/kg) [min] | half-life ([2]; po 5 mg/kg) [min] | bioavailability [2] [%] |
| --- | --- | --- | --- | --- | --- | --- | --- | --- | --- | --- | --- | --- | --- | --- | --- | --- | --- |
| O=C(O)c1cc(F)c2c(c1)Oc1ccc(OCc3c(-c4c(Cl)cccc4Cl)noc3C3CC3)nc1CC2 [Example 4, 2-((5-cyclopropyl-3-(2,6-dichlorophenyl)isoxazol-4-yl)methoxy)-9-fluoro-10,11-dihydrobenzo[6,7]oxepino[3,2-b]pyridine-7-carboxylic acid] | 60.4 |  |  |  |  |  |  |  |  |  |  |  |  |  |  |  |  |
| O=C(O)c1cc2c(cc1F)CCc1nc(OCc3c(-c4c(Cl)cccc4Cl)noc3C3CC3)ccc1O2 [Example 6, 2-((5-cyclopropyl-3-(2,6-dichlorophenyl)isoxazol-4-yl)methoxy)-8-fluoro-10,11-dihydrobenzo[6,7]oxepino[3,2-b]pyridine-7-carboxylic acid] | 31 |  |  |  |  |  |  |  |  |  |  |  |  |  |  |  |  |
| O=C(O)c1ccc2c(c1)Oc1ccc(OCc3c(-c4c(Cl)cccc4Cl)noc3C3CC3)nc1C(F)(F)C2 [Example 10, 2-((5-cyclopropyl-3-(2,6-dichlorophenyl)isoxazol-4-yl)methoxy)-11,11-difluoro-10,11-dihydrobenzo[6,7]oxepino[3,2-b]pyridine-7-carboxylic acid] |  | 12 | 1330 | 1330 | 3020 | 25.7 | 4.98 | 12.6 | 47.6 | 0.322 | 5840 | 5790 | 3760 | 82.8 | 30 | 57.4 | 88 |
| O=C(O)c1ccc2c(c1)Oc1ccc(OCc3c(-c4c(Cl)cccc4Cl)noc3C3CC3)nc1C1CC21 (centres unmarked) [Example 3, 3-((5-cyclopropyl-3-(2,6-dichlorophenyl)isoxazol-4-yl)methoxy)-1a,10b-dihydro-1H-benzo[6,7]cyclopropa[4,5]oxepino[3,2-b]pyridine-8-carboxylic acid] | 76.1 |  |  |  |  |  |  |  |  |  |  |  |  |  |  |  |  |
| O=C(O)c1ccc2c(c1)Oc1ccc(OCc3c(-c4c(Cl)cccc4Cl)noc3C3CC3)nc1CO2 [Example 2, 2-((5-cyclopropyl-3-(2,6-dichlorophenyl)isoxazol-4-yl)methoxy)-11H-benzo[2,3][1,4]dioxepino[6,5-b]pyridine-7-carboxylic acid] | 5.1 |  | 1150 | 1150 | 2060 | 32.9 | 4.98 | 14.8 | 53 | 0.479 | 4110 | 4110 | 3640 | 55.9 | 30 | 42.6 | 72 |
| O=C(O)c1ccc2c(c1)Oc1ccc(OCc3c(-c4c(Cl)cccc4Cl)noc3C3CC3)nc1C=C2F [Example 1, 2-((5-cyclopropyl-3-(2,6-dichlorophenyl)isoxazol-4-yl)methoxy)-10-fluorobenzo[6,7]oxepino[3,2-b]pyridine-7-carboxylic acid] | 49.3 |  | 1540 | 1540 | 1890 | 47.5 | 4.98 | 11.2 | 43.4 | 0.522 | 4210 | 4180 | 2760 | 79.2 | 30 | 54.8 | 55 |
| O=C(O)c1cc2c(cc1O)CCc1nc(OCc3c(-c4c(Cl)cccc4Cl)noc3C3CC3)ccc1O2 [Example 11, 2-((5-cyclopropyl-3-(2,6-dichlorophenyl)isoxazol-4-yl)methoxy)-8-hydroxy-10,11-dihydrobenzo[6,7]oxepino[3,2-b]pyridine-7-carboxylic acid] | 17 | 105 |  |  |  |  |  |  |  |  |  |  |  |  |  |  |  |
